From ChEMBL document CHEMBL1201862, “PubChem BioAssay data set” (2004)
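Assay format: 96-well plates, 48-hour exposure. GI50 marks 50% less growth.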 Activity calls are given as the source filed them. Rule as the data show it: active = GI50 up to about 1.1 µM and inactive = higher.

Legend:
Test in all cases: inhibition of tumour cell growth, NCI panel, 48 h
HCT-15 = test system: HCT-15
LOX IMVI = test system: LOX IMVI
OVCAR-5 = test system: OVCAR-5
SNB-75 = test system: SNB-75
KM12 = test system: KM12
K562 = test system: K562
MDA-MB-231 = test system: MDA-MB-231
SK-OV-3 = test system: SK-OV-3
HT-29 = test system: HT-29
SK-MEL-2 = test system: SK-MEL-2
CAKI-1 = test system: CAKI-1
M14 = test system: M14
MDA-MB-435 = test system: MDA-MB-435
T47D = test system: T47D
U-251 = test system: U-251
SR = test system: SR
COLO 205 = test system: COLO 205
PC-3 = test system: PC-3
HL-60 = test system: HL-60
HOP-92 = test system: HOP-92

Measured: GI50

Cc1ccnc(NC(=S)Nc2ccccc2Cl)c1
> 100 µM: HCT-15
inactive: LOX IMVI > 100 µM | OVCAR-5 > 100 µM | SNB-75 13 µM | KM12 > 100 µM | K562 > 100 µM | MDA-MB-231 2.23 µM | SK-OV-3 83.8 µM | HT-29 > 100 µM | SK-MEL-2 > 100 µM | CAKI-1 > 100 µM | M14 > 100 µM | MDA-MB-435 > 100 µM | T47D > 100 µM | U-251 > 100 µM | SR > 100 µM | COLO 205 > 100 µM | PC-3 > 100 µM | HL-60 > 100 µM

CN1CCCOC(c2ccc([N+](=O)[O-])cc2)O1 (stereo not given)
> 100 µM: HCT-15
inactive: LOX IMVI > 100 µM | OVCAR-5 > 100 µM | SNB-75 > 100 µM | KM12 > 100 µM | K562 > 100 µM | MDA-MB-231 > 100 µM | SK-OV-3 > 100 µM | HT-29 > 100 µM | SK-MEL-2 > 100 µM | CAKI-1 > 100 µM | M14 > 100 µM | MDA-MB-435 > 100 µM | T47D > 100 µM | U-251 > 100 µM | SR > 100 µM | HOP-92 > 100 µM | COLO 205 > 100 µM | PC-3 > 100 µM

CCc1nc(N)c2nc(-c3ccc(C#N)cc3)oc2n1
> 100 µM: HCT-15
inactive: LOX IMVI > 100 µM | OVCAR-5 > 100 µM | SNB-75 > 100 µM | KM12 > 100 µM | K562 > 100 µM | MDA-MB-231 > 100 µM | HT-29 > 100 µM | SK-MEL-2 > 100 µM | CAKI-1 > 100 µM | M14 > 100 µM | MDA-MB-435 > 100 µM | T47D > 100 µM | SR > 100 µM | HOP-92 > 100 µM | COLO 205 > 100 µM | PC-3 > 100 µM | HL-60 > 10 µM

CCCC(C(=O)Nc1cccc2nc[nH]c12)C(=O)OCC (stereo not given)
> 100 µM: HCT-15
inactive: LOX IMVI > 100 µM | OVCAR-5 > 100 µM | SNB-75 > 100 µM | KM12 > 100 µM | K562 > 100 µM | MDA-MB-231 > 100 µM | SK-OV-3 > 100 µM | HT-29 > 100 µM | SK-MEL-2 > 100 µM | M14 > 100 µM | MDA-MB-435 > 100 µM | T47D > 100 µM | U-251 > 100 µM | SR > 100 µM | HOP-92 > 100 µM | PC-3 > 100 µM | HL-60 > 100 µM

CCCCC1=NNC(=O)C1
inactive: OVCAR-5 > 100 µM | SNB-75 > 100 µM | KM12 > 100 µM | MDA-MB-231 > 100 µM | SK-OV-3 > 100 µM | HT-29 > 100 µM | SK-MEL-2 > 100 µM | CAKI-1 > 100 µM | M14 > 100 µM | MDA-MB-435 > 100 µM | T47D > 100 µM | U-251 > 100 µM | SR > 100 µM | HOP-92 > 100 µM | COLO 205 > 100 µM | PC-3 > 100 µM | HL-60 > 100 µM
> 100 µM: HCT-15

COC1OC(C(C)O)C2OC(C)(C)OC12 (stereo not given)
> 100 µM: HCT-15
inactive: LOX IMVI > 100 µM | OVCAR-5 > 100 µM | SNB-75 > 100 µM | KM12 > 100 µM | K562 > 100 µM | MDA-MB-231 > 100 µM | SK-OV-3 > 100 µM | HT-29 > 100 µM | SK-MEL-2 > 100 µM | CAKI-1 > 100 µM | M14 > 100 µM | MDA-MB-435 > 100 µM | T47D > 100 µM | U-251 > 100 µM | SR > 100 µM | COLO 205 > 100 µM | PC-3 > 100 µM | HL-60 > 100 µM

CC1(C)OC2OC(C(=O)c3ccccc3)C3OC(C)(C)OC3C2O1 (stereo not given)
> 100 µM: HCT-15
inactive: LOX IMVI > 100 µM | OVCAR-5 > 100 µM | SNB-75 > 100 µM | KM12 > 100 µM | K562 > 100 µM | MDA-MB-231 > 100 µM | SK-OV-3 > 100 µM | SK-MEL-2 > 100 µM | CAKI-1 > 100 µM | M14 > 100 µM | MDA-MB-435 > 100 µM | T47D > 100 µM | U-251 > 100 µM | SR > 100 µM | HOP-92 > 100 µM | COLO 205 > 100 µM | PC-3 > 100 µM | HL-60 > 100 µM
